In the assay the target is T1, DYRK1B (Homo sapiens, UniProt Q9Y463).
T1 construct: purchased Thermo Fisher Scientific (Life Technologies) SelectScreen
Nature of the assay: SelectScreen Z'LYTE. The assay is classed as biochemical. Put shortly: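 NU5455 was profiled across the SelectScreen Broad panel of kinase activity and binding assays. Z'LYTE reactions such as CSF1R ran at apparent Km ATP, while the Adapta CAMK1 assay used ATP listed as 10. Values are given as percent.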

T1 sequence (Q9Y463 whole entry): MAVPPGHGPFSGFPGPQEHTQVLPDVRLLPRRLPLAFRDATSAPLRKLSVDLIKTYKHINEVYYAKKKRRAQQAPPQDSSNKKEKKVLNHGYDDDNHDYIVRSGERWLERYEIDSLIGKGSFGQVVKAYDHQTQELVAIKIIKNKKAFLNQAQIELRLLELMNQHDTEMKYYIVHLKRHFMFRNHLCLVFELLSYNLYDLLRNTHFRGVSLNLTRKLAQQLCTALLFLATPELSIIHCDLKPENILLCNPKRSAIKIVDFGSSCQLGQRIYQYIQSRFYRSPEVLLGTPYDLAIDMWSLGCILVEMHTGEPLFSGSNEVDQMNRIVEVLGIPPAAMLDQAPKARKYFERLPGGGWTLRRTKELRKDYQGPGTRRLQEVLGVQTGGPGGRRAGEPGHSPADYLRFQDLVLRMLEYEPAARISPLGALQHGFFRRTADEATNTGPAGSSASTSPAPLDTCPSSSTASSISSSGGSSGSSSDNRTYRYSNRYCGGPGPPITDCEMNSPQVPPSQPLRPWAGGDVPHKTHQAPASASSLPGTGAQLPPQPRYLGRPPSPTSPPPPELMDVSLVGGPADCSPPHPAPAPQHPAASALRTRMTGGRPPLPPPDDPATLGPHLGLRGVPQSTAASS

Take `CN(C(=O)CN1CCOCC1)c1ccc2sc3c(-c4cccc5c(=O)cc(N6CC7CCC(C6)O7)oc45)cccc3c2c1` [NU5455]: the inhibition (commonly the drop in the measured response relative to a control, in per cent) at 1 µM is -1.8%.

These data come from paper PMC6934184, “Selective DNA-PKcs inhibition extends the therapeutic index of localized radiotherapy and chemotherapy” (The Journal of Clinical Investigation, 2019).
